{"source": "patent US10577371B2", "about": "“Small molecule histone methyltransferase SUV39H1 inhibitor and uses thereof” (Augusta University Research Institute, Inc., priority 2017, dated 2020)", "key": {"[1]": {"settings": "background statement; cited from earlier work"}, "[2]": {"tested_on": "Fas in SW620 and LS411N cells", "experiment": "Fas protein level on tumor cell surface by flow cytometry", "format": "cell-based, human", "settings": "3 days, 25 and 250 nM", "procedure": "SW620 and LS411N cells were cultured in the presence of F5446 for 3 days. Fas protein levels were analyzed by flow cytometry (FIG. 12A-12B)."}, "[3]": {"tested_on": "SW620 and LS411N cells", "experiment": "Sensitisation of colon carcinoma cells to FasL-induced apoptosis", "format": "cell-based, human", "settings": "F5446 at sublethal dose plus FasL, 3 days", "procedure": "SW620 and LS411N cells were cultured in the presence of F5446 and FasL, either alone or in combination, for 3 days. Cells were stained with PI and Annexin V and analyzed for apoptosis.\nApoptotic cell death was calculated as the difference between the percentage of PI^+ Annexin V^+ cells in the presence of F5446, FasL, or both and the percentage of PI^+ Annexin V+ cells in the absence of F5446 or FasL."}, "[4]": {"tested_on": "CD8+ CTLs from CT26 tumor tissues", "experiment": "H3K9me3 ChIP and qPCR in tumor-infiltrating CD8+ CTLs of CT26 tumor bearing mice", "format": "in vivo", "settings": "CD8+ CTLs from CT26 tumors, F5446-treated mice", "procedure": "CD8^+ CTLs were isolated from tumor tissues of the control and the F5446-treated groups of CT26 tumor bearing mice (from Example 13). ChIP analysis of H3K9me3 level in the promoter regions of GZMB, PRF1, FASLG and IFNG was performed. Further a qPCR analysis was performed to determine the expression levels of all four promoter regions."}, "[5]": {"tested_on": "MC38 and CT26 colon carcinoma tumors", "experiment": "Colon carcinoma growth in vivo, MC38 in C57BL/6 and CT26 in BALB/c mice", "settings": "F5446 10 mg/kg", "procedure": "Two different tumor cells were injected into two different strains of mice. MC38 cells (1.5×10^5 cells/mouse) were injected to thirty C57BL/6 mice subcutaneously. CT26 cells (2×10^5 cells/mouse) were injected to thirty BALB/c mice subcutaneously. Twenty mice from each strain with relatively similar sizes of tumors were randomized into four groups at day 8 after tumor cell injection. The four groups of tumor-bearing mice were treated with IgG/solvent (control), […] (10 mg/kg), anti-PD-1 mAb ([…]), and […]+anti-PD-1 mAb, respectively, every two days for 14 days."}, "[6]": {"molecular_target": "T1, recombinant human SUV39H1 (Homo sapiens, UniProt O43463)", "T1 construct": "purchased Reaction Biology Corp. (Malvern Pa.)", "T1 sequence (O43463 1-412)": "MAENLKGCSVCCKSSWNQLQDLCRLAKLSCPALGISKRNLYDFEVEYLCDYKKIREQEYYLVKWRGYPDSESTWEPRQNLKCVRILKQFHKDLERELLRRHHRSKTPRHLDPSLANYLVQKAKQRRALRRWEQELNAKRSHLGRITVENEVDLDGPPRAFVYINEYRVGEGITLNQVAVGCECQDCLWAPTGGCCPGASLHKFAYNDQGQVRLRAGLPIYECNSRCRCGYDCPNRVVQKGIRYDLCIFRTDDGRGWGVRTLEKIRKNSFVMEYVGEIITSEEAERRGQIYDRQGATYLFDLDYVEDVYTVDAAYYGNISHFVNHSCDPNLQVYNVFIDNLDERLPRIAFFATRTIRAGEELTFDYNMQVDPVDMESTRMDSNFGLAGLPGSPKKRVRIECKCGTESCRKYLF", "experiment": "HMTase EC50 assay with recombinant human SUV39H1 (Reaction Biology Corp.)", "format": "biochemical", "settings": "10-dose, 3-fold serial dilutions; S-(methyl-3H) Adenosyl-L-Methionine; H3 peptide (N1-21); read-out: EC50 against recombinant human SUV39H1 in vitro", "procedure": "F5446 was sent to Reaction Biology Corp. (Malvern Pa.) to validate its inhibitory activity and to determine its EC50 for SUV39H1. F5446 was assayed in a 10-dose EC50 mode with 3-fold serial dilutions using recombinant human SUV39H1 protein as the methyltransferase, S-(methyl-3H) Adenosyl-L-Methionine as the substrate, and H3 peptide (N1-21) as the template in the presence of indicated doses of F5446. The EC50 was calculated with Prizm Program."}, "[7]": {"experiment": "Toxicity of F5446 in mice: survival and serum liver enzyme profile", "format": "in vivo", "procedure": "F5446 was injected into mice at a dose of 10 mg/kg body weight every 2 days for 6 days. Mouse survival was recorded. Serum was collected from the mice and analyzed for liver enzyme profiles at the University of Georgia Veterinary Diagnostic Laboratories."}, "[8]": {"tested_on": "SW620 and LS411N cells", "experiment": "Apoptosis of human colon carcinoma cells, PI/annexin V flow cytometry", "format": "cell-based", "settings": "0.01, 0.05, 0.25 and 1 μM for 2 days", "procedure": "SW620 and LS411N cells were cultured in the presence of F5446 at doses of 0.01, 0.05, 0.25, and 1 μM for 2 days. Cells were stained with propidium iodide (“PI”) and annexin V and analyzed for apoptosis by flow cytometry.\nApoptotic cell death was calculated as the difference between the percentage of PI^+ Annexin V^+ cells in the presence of F5446 and the percentage of PI^+ Annexin V^+ cells in the absence of F5446."}, "[9]": {"tested_on": "H3K9me3 at the FAS promoter region in SW620 and LS411N cells", "experiment": "ChIP of H3K9me3 at the FAS promoter region in colon carcinoma cells", "format": "cell-based, human", "settings": "25 and 250 nM for 2 days", "procedure": "SW620 and LS411N cells were treated with F5446 at 25, and 250 nM for 2 days and analyzed by ChIP using H3K9me3-specific antibody. The H3K9me3 antibody-immunoprecipitated DNA was amplified by PCR with FAS promoter DNA-specific primers and normalized to input genomic DNA."}, "[10]": {"tested_on": "CD3+ T cells from spleens of C57BL/6 mice", "experiment": "H3K9me3 ChIP and effector expression in activated CD3+ T cells", "format": "cell-based", "settings": "activated mouse CD3+ T cells", "procedure": "CD3^+ T cells were purified from spleens of C57BL/6 mice. The cells were stimulated in anti-CD3/CD28-coated plates for 2 days in the absence or presence of F5446 (50 nM). The resting, stimulated and treated T cells were then analyzed by ChIP (Chromatin Immunoprecipitation) with anti-H3K9me3 antibody and gene-specific PCR primers."}, "[11]": {"tested_on": "AB1-HA tumor model", "settings": "CTX treatment at Day 9; cited from earlier work"}, "[12]": {"settings": "MC38/C57BL/6 and CT26/BALB/c, anti-PD-1 mAb 200 mg/mouse, every two days for 14 days"}, "[13]": {"settings": "mouse serum, 10 mg/kg every 2 days for 6 days"}}}
{"smiles": "CN1C(=O)[C@@]23C[C@]4([C@]56C[C@@]78SS[C@@](CO)(C(=O)N7[C@H]5Nc5ccccc56)N(C)C8=O)c5ccccc5N[C@@H]4N2C(=O)[C@]1(CO)SS3", "note": "[chaetocin]", "values": [{"measurement": "toxicity in vivo", "setting": "[1]", "result": "toxic in vivo"}]}
{"smiles": "COC(=O)c1cc2c(n1S(=O)(=O)c1ccc(Cl)cc1)C(=O)C(=O)c1[nH]cc(C(=O)OCc3ccccc3)c1-2", "note": "[F5446, 1-Benzyl 7-methyl 6-(4-chlorobenzenesulfonyl)-4,5-dioxo-3H,4H,5H,6H-pyrrolo[3,2-e]indole-1,7-dicarboxylate]", "values": [{"measurement": "tumor cell surface Fas expression (MFI)", "setting": "[2]", "result": "up-regulated tumor cell surface Fas expression"}, {"measurement": "sensitivity to FasL-induced apoptosis", "setting": "[3]", "result": "significantly increased human colon carcinoma cells to FasL-induced apoptosis"}, {"measurement": "expression levels of granzymeB, perforin, FasL and IFNγ in tumor-infiltrating CTLs (qPCR)", "setting": "[4]", "result": "significantly increased"}, {"measurement": "H3K9me3 levels in the promoter regions of GZMB, PRF1, FASLG and IFNG in tumor-infiltrating CTLs", "setting": "[4]; ChIP", "result": "decreased H3K9me3 levels"}, {"measurement": "established tumor growth over time (tumor volume)", "setting": "[5]; [12]", "result": "suppressed the established tumor growth in a time-dependent manner"}, {"measurement": "tumor growth as measured by tumor size and tumor weight", "setting": "[5]; [12]", "result": "significantly reduced tumor growth"}, {"measurement": "expression levels of granzymeB, perforin, FasL and IFNγ in tumor tissues (qPCR)", "setting": "[5]; tumor tissues of C57BL/6 and BALB/c mice", "result": "significantly increased"}, {"measurement": "EC50", "setting": "[6]", "result": 496, "unit": "nM"}, {"measurement": "survival rate", "setting": "[7]; mice, 10 mg/kg body weight every 2 days for 6 days", "result": 100, "unit": "%"}, {"measurement": "liver enzyme profile, overall finding", "setting": "[7]; mice, 10 mg/kg every 2 days for 6 days", "result": "did not cause toxic levels of liver enzymes in vivo"}, {"measurement": "ALP", "setting": "[7]; [13]", "result": 60.3, "unit": "U/L"}, {"measurement": "ALT", "setting": "[7]; [13]", "result": 71.3, "unit": "U/L"}, {"measurement": "AST", "setting": "[7]; [13]", "result": 444.3, "unit": "U/L"}, {"measurement": "Albumin", "setting": "[7]; [13]", "result": 3.3, "unit": "g/dL"}, {"measurement": "Cholesterol", "setting": "[7]; [13]", "result": 119, "unit": "mg/dL"}, {"measurement": "GGT", "setting": "[7]; [13]", "result": "<3", "unit": "U/L"}, {"measurement": "Total Bilirubin", "setting": "[7]; [13]", "result": 0.1, "unit": "mg/dL"}, {"measurement": "Total protein", "setting": "[7]; [13]", "result": 5.7, "unit": "g/dL"}, {"measurement": "apoptotic cell death", "setting": "[8]", "result": "induced human colon carcinoma cell death in a dose-dependent manner"}, {"measurement": "H3K9me3 at the FAS promoter region", "setting": "[9]", "result": "inhibits H3K9me3 at the FAS promoter region"}, {"measurement": "H3K9me3 levels in the promoter regions of GZMB, PRF1, FASLG and IFNG", "setting": "[10]; F5446 50 nM, 2 days, ChIP", "result": "reduced H3K9me3 levels"}, {"measurement": "expression of GZMB, PRF1, FASLG and IFNG", "setting": "[10]; increasing doses of F5446", "result": "increased expression of all four effector genes in a dose-dependent manner"}]}
{"smiles": "CN1C(=O)[C@]23SS[C@@]1(C)C(=O)N2[C@H]1Nc2ccccc2[C@@]1([C@@]12c4ccccc4N[C@@H]1N1C(=O)[C@@]4(C)SS[C@]1(C(=O)N4C)[C@H]2O)[C@@H]3O", "note": "[verticillin A]", "values": [{"measurement": "toxicity in vivo", "setting": "[1]", "result": "toxic in vivo"}]}
{"smiles": "O=P1(N(CCCl)CCCl)NCCCO1", "note": "(stereo not shown) [CTX, Cyclophosphamide]", "values": [{"measurement": "cure rate", "setting": "[11]", "result": 75, "unit": "%"}]}
